This is an account of results in patent US20260028348A1, “MODULATORS OF TNF-ALPHA ACTIVITY” (Forward Therapeutics, Inc., priority 2023, published 2026).

The subject of this experiment is HEK Blue™ TNFα reporter cells. As to the kind of experiment: TNF-α Induced HEK Blue Cellular Assay. It counts as cell-based. The following applies: TNF-α stimulated HEK Blue TNFα reporter cells, 24 hrs, secreted alkaline phosphatase (QUANTI-Blue, 620 nm). The procedure: Test articles were diluted in DMSO and serially diluted into 384 well assay plate (Corning 3765), at final concentrations ranging from […] to 0.5 nM. HEK Blue™ TNFα reporter cells were added at a final density of 10,000 cell per well in assay media [DMEM (Gibco, cat #21063-029), 10% fetal bovine serum (ExcelBio, cat #FND500), 1% Penicillin-Streptomycin (Solarbio, cat #P1400-100]. TNF-α (R&D 210-TA-020/CF) was then added to the assay plate at a final concentration of […]. This plate was then incubated for 24 hrs at 37° C. and 5% CO2. Secreted alkaline phosphatase expression was then measured using QUANTI-Blue™(Invivogen), according to manufacturer instructions and read on an Envision microplate reader at 620 nm.
Inhibition data for test compound over a range of concentration was plotted as percentage inhibition of the test compound (100%=maximum inhibition). IC50 values were determined after correcting for background [(sample read-mean of low control)/(mean of high control-mean of low control)] whereby the low control is DMSO without stimulation and high control is DMSO with stimulation. The IC50 is defined as the concentration of test compound which produces […] and was quantified using the 4 parameter logistic equation to fit the data.

Consider `[2H]C([2H])([2H])N1C(=O)c2cccc(OC(F)F)c2[C@H]2C[C@@H]1c1nc3ccc(-c4cnc5c(c4)OC[C@]5(C)O)nc3n12` (single isomer, unassigned) [Example 64], for which the IC50 – broadly, the concentration that gives 50% inhibition – fell in the range of 100 to 1000 nM.
For `[2H]C([2H])([2H])N1C(=O)c2cccc(OC(F)F)c2[C@H]2C[C@@H]1c1nc3ccc(-c4cnc5c(c4)OC[C@@]5(C)O)c(F)c3n12` (single isomer, unassigned) [Example 53] the value was below 100 nM.
For `[2H]C([2H])([2H])N1C(=O)c2cccc(OC(F)F)c2[C@H]2C[C@@H]1c1nc3ccc(-c4cnc5c(c4)OCC5(C)O)cc3n12` (stereo partly drawn) [Example 44, (7R,14R)-1-(difluoromethoxy)-11-(3-hydroxy-3-methyl-2,3-dihydrofuro[3,2-b]pyridin-6-yl)-6-(methyl-d3)-6,7-dihydro-7,14-methanobenzo[f]benzo[4,5]imidazo[1,2-a][1,4]diazocin-5(14H)-one] the value was below 100 nM.
For `CN1C(=O)c2cccc(OC(F)F)c2[C@H]2C[C@@H]1c1nc3ccc(-c4cnc5c(c4)CC[C@@H]5N)cc3n12` (single isomer, unassigned) [Example 16] the value was below 100 nM.
With `[2H]C([2H])([2H])N1C(=O)c2cccc(OC(F)F)c2[C@H]2C[C@@H]1c1nc3cc(F)c(-c4cnc5c(c4)OC[C@@]5(C)N)cc3n12` (single isomer, unassigned) [Example 61], the IC50 was below 100 nM.
Turning to `CN1C(=O)c2cccc(OC(F)F)c2[C@H]2C[C@@H]1c1nc3ccc(-c4cnc5c(c4)CCC5(C)O)cc3n12` (stereo partly drawn) [Example 1, (1R,11R)-18-(difluoromethoxy)-5-{7-hydroxy-7-methyl-5H,6H-cyclopenta[b]pyridin-3-yl}-12-methyl-2,9,12-triazapentacyclo[9.8.1.0^{2,10}.0^{3,8}.0^{14,19}]icosa-3(8),4,6,9,14(19),15,17-heptaen-13-one], the IC50 was below 100 nM.
The same measure for `[2H]C([2H])([2H])N1C(=O)c2cccc(OC(F)F)c2[C@H]2C[C@@H]1c1nc3ccc(-c4cnc5c(c4)OCC[C@]5(C)O)c(F)c3n12` (single isomer, unassigned) [Example 52]: below 100 nM; for `CN1C(=O)c2cccc(OC(F)F)c2[C@H]2C[C@@H]1c1nc3ccc(-c4ccc5c(c4)OCCC5(C)N)cc3n12` (stereo partly drawn) [Example 24, (1R,11R)-5-(4-amino-4-methyl-2,3-dihydro-1-benzopyran-7-yl)-18-(difluoromethoxy)-12-methyl-2,9,12-triazapentacyclo[9.8.1.0^{2,10}.0^{3,8}.0^{14,19}]icosa-3(8),4,6,9,14(19),15,17-heptaen-13-one]: below 100 nM; for `CN1C(=O)c2cccc(OC(F)F)c2[C@H]2C[C@@H]1c1nc3ccc(-c4cnc5c(c4)CC[C@H]5N)cc3n12` (single isomer, unassigned) [Example 17]: below 100 nM.
For `CN1C(=O)c2cccc(OC(F)F)c2[C@H]2C[C@@H]1c1nc3ccc(-c4ccc5c(c4)CC[C@H]5N)cc3n12` [Example 9, (1R,11R)-5-[(1R)-1-amino-2,3-dihydro-1H-inden-5-yl]-18-(difluoromethoxy)-12-methyl-2,9,12-triazapentacyclo[9.8.1.0^{2,10}.0^{3,8}.0^{14,19}]icosa-3(8),4,6,9,14(19),15,17-heptaen-13-one] the value was below 100 nM.
The same measure for `CN1C(=O)c2cccc(OC(F)F)c2[C@H]2C[C@@H]1c1nc3ccc(-c4cnc5c(c4)CC[C@]5(N)CO)cc3n12` (single isomer, unassigned) [Example 36]: below 100 nM; for `CN1C(=O)c2cccc(OC(F)F)c2[C@H]2C[C@@H]1c1nc3ccc(-c4cnc5c(c4)CC[C@]5(C)O)cc3n12` (single isomer, unassigned) [Example 12]: below 100 nM.
Regarding `[2H]C([2H])([2H])N1C(=O)c2cccc(OC(F)F)c2[C@H]2C[C@@H]1c1nc3ccc(-c4cnc5c(c4)COC[C@@]5(C)O)cc3n12` (single isomer, unassigned) [Example 39], the half-inhibitory concentration (IC50) fell in the range of 10000 to 30000 nM.
For `CN1C(=O)c2cccc(OC(F)F)c2[C@H]2C[C@@H]1c1nc3ccc(-c4ccc5c(c4)CC[C@@H]5O)cc3n12` [Example 15, (1R,11R)-18-(difluoromethoxy)-5-[(1S)-1-hydroxy-2,3-dihydro-1H-inden-5-yl]-12-methyl-2,9,12-triazapentacyclo[9.8.1.0^{2,10}.0^{3,8}.0^{14,19}]icosa-3(8),4,6,9,14(19),15,17-heptaen-13-one] the value was below 100 nM; for `CN1C(=O)c2cccc(OC(F)F)c2[C@H]2C[C@@H]1c1nc3ccc(-c4cc(F)c5c(c4)CC[C@@H]5N)cc3n12` [Example 7, (1R,11R)-5-[(1S)-1-amino-7-fluoro-2,3-dihydro-1H-inden-5-yl]-18-(difluoromethoxy)-12-methyl-2,9,12-triazapentacyclo[9.8.1.0^{2,10}.0^{3,8}.0^{14,19}]icosa-3(8),4,6,9,14(19),15,17-heptaen-13-one], below 100 nM.
The same measure for `[2H]C([2H])([2H])N1C(=O)c2cccc(OC(F)F)c2[C@H]2C[C@@H]1c1nc3ccc(-c4cnc5c(c4)OC[C@]5(C)O)c(F)c3n12` (single isomer, unassigned) [Example 54]: below 100 nM; for `[2H]C([2H])([2H])N1C(=O)c2cccc(OC(F)F)c2[C@H]2C[C@@H]1c1nc3ccc(-c4cnc5c(c4)COC[C@]5(O)CC)cc3n12` (single isomer, unassigned) [Example 41]: 10000 to 30000 nM.
For `[2H]C([2H])([2H])N1C(=O)c2cccc(OC(F)F)c2[C@H]2C[C@@H]1c1nc3ccc(-c4cnc5c(c4)NC(=O)[C@]5(C)O)cc3n12` (single isomer, unassigned) [Example 42] the value was below 100 nM.
The compound `[2H]C([2H])([2H])N1C(=O)c2cccc(OC(F)F)c2[C@H]2C[C@@H]1c1nc3ccc(-c4cnc5c(c4)OCC[C@@H]5N)cc3n12` [Example 30, (7R,14R)-11-((S)-4-amino-3,4-dihydro-2H-pyrano[3,2-b]pyridin-7-yl)-1-(difluoromethoxy)-6-(methyl-d3)-6,7-dihydro-7,14-methanobenzo[f]benzo[4,5]imidazo[1,2-a][1,4]diazocin-5(14H)-one] showed an IC50 below 100 nM.
`CN1C(=O)c2cccc(OC(F)F)c2[C@H]2C[C@@H]1c1nc3cc(F)c(-c4cnc5c(c4)CCC5(C)N)cc3n12` (stereo partly drawn) [Example 27, (1R,11R)-5-{7-amino-7-methyl-5H,6H-cyclopenta[b]pyridin-3-yl}-18-(difluoromethoxy)-6-fluoro-12-methyl-2,9,12-triazapentacyclo[9.8.1.0^{2,10}.0^{3,8}.0^{14,19}]icosa-3(8),4,6,9,14(19),15,17-heptaen-13-one; formic acid] came in with an IC50 below 100 nM.
As for `[2H]C([2H])([2H])N1C(=O)c2cccc(OC(F)F)c2[C@H]2C[C@@H]1c1nc3ccc(-c4cnc5c(c4)CC[C@]5(C)N)cc3n12` (single isomer, unassigned) [Example 28], the IC50 was below 100 nM.
The same measure for `CN1C(=O)c2cccc(OC(F)F)c2[C@H]2C[C@@H]1c1nc3ccc(-c4ccc5c(c4)OCC[C@@H]5N)cc3n12` [Example 10, (1R,11R)-5-[(4S)-4-amino-3,4-dihydro-2H-1-benzopyran-7-yl]-18-(difluoromethoxy)-12-methyl-2,9,12-triazapentacyclo[9.8.1.0^{2,10}.0^{3,8}.0^{14,19}]icosa-3(8),4,6,9,14(19),15,17-heptaen-13-one]: below 100 nM.
